Laboratory results reported in ChEMBL document CHEMBL1201862, “PubChem BioAssay data set” (2004).
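Test compounds were applied to cells in 96-well plates for 48 hours at 5 doses. GI50: concentration for 50% inhibition of growth.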 Active and inactive are the calls of the source. Cut-off read from the data, not from the text of the source: active = GI50 up to about 1.1 µM and inactive = higher.

Assays:
Assay in all cases: DTP human tumour cell line panel, 48 h
[1] = tested on: UACC-257
[2] = tested on: SF-295
[3] = tested on: NCI-H23
[4] = tested on: HCC 2998
[5] = tested on: COLO 205
[6] = tested on: ACHN
[7] = tested on: UACC-62
[8] = tested on: HOP-62
[9] = tested on: LOX IMVI
[10] = tested on: DMS-114
[11] = tested on: A549
[12] = tested on: SK-MEL-28
[13] = tested on: RPMI-8226
[14] = tested on: EKVX
[15] = tested on: M14
[16] = tested on: OVCAR-3
[17] = tested on: CCRF-CEM
[18] = tested on: HT-29
[19] = tested on: SN12C
[20] = tested on: NCI-H226
[21] = tested on: RXF 393
[22] = tested on: SF-268
[23] = tested on: K562
[24] = tested on: HL-60
[25] = tested on: TK-10
[26] = tested on: OVCAR-4
[27] = tested on: SNB-75
[28] = tested on: SNB-19
[29] = tested on: LXFL 529
[30] = tested on: SW-620
[31] = tested on: DLD-1
[32] = tested on: IGROV-1
[33] = tested on: SK-MEL-5
[34] = tested on: RXF 631
[35] = tested on: NCI-H522
[36] = tested on: XF498
[37] = tested on: OVCAR-8
[38] = tested on: OVCAR-5
[39] = tested on: 786-0
[40] = tested on: Malme-3M
[41] = tested on: SK-OV-3
[42] = tested on: HOP-92
[43] = tested on: SK-MEL-2
[44] = tested on: KM-20L2
[45] = tested on: SF-539
[46] = tested on: CAKI-1
[47] = tested on: M19-MEL
[48] = tested on: UO-31
[49] = tested on: KM12
[50] = tested on: SR
[51] = tested on: SNB-78
[52] = tested on: NCI-H460
[53] = tested on: U-251
[54] = tested on: HCT-15
[55] = tested on: MOLT-4
[56] = tested on: DMS-273

With `CN(C)CC(/C(Cc1ccccc1)=N\NC(=O)c1ccncc1)c1ccccc1` (stereo not drawn) the GI50 [1] was 32.3 µM (inactive), the GI50 [2] was 17.4 µM (inactive) and the GI50 [3] was 46.8 µM (inactive). For the same compound, the GI50 [4] was 39.1 µM (inactive), the GI50 [5] was 30.8 µM (inactive) and the GI50 [6] was 27.5 µM (inactive). The GI50 [7] was 31 µM (inactive), the GI50 [8] was 33.8 µM (inactive) and the GI50 [9] was 30.2 µM (inactive). For the same compound, the GI50 [10] was 22.5 µM (inactive), the GI50 [11] was 30.3 µM (inactive) and the GI50 [12] was 45.9 µM (inactive). For the same compound, the GI50 [13] was 16.4 µM (inactive), the GI50 [14] was 23.6 µM (inactive) and the GI50 [15] was 25.5 µM (inactive). The GI50 [16] was 20.1 µM (inactive), the GI50 [17] was 17.2 µM (inactive) and the GI50 [18] was 41 µM (inactive). The GI50 [19] was 46.2 µM (inactive), the GI50 [20] was 71.6 µM (inactive) and the GI50 [21] was 28.7 µM (inactive). The GI50 [22] was 33.4 µM (inactive), the GI50 [23] was 31.2 µM (inactive) and the GI50 [24] was 4.17 µM (inactive). For the same compound, the GI50 [25] was 34.2 µM (inactive), the GI50 [26] was 36.7 µM (inactive) and the GI50 [27] was 36.1 µM (inactive). The GI50 [28] was 39 µM (inactive), the GI50 [29] was 36.1 µM (inactive) and the GI50 [30] was 35.8 µM (inactive). For the same compound, the GI50 [31] was 49.1 µM (inactive), the GI50 [32] was 47.6 µM (inactive) and the GI50 [33] was 19 µM (inactive). For the same compound, the GI50 [34] was 40.7 µM (inactive), the GI50 [35] was 27.4 µM (inactive) and the GI50 [36] was 29.4 µM (inactive). The GI50 [37] was 32.8 µM (inactive), the GI50 [38] was 83.8 µM (inactive) and the GI50 [39] was 30 µM (inactive). The GI50 [40] was 28.8 µM (inactive), the GI50 [41] was 38 µM (inactive) and the GI50 [42] was 19.2 µM (inactive). The GI50 [43] was 18.9 µM (inactive), the GI50 [44] was 27 µM (inactive) and the GI50 [45] was 43.7 µM (inactive). The GI50 [46] was 44.3 µM (inactive) and the GI50 [47] was 30.1 µM (inactive).
With `CC(C)COC(=O)c1ccc(/N=C\c2ccc(/C=N/c3ccc(C(=O)OCC(C)C)cc3)cc2)cc1` the GI50 [1] was > 100 µM (inactive), the GI50 [2] was > 100 µM (inactive) and the GI50 [3] was 96.6 µM (inactive). For the same compound, the GI50 [4] was > 100 µM (inactive), the GI50 [5] was > 100 µM (inactive) and the GI50 [6] was > 100 µM (inactive). The GI50 [48] was 23.9 µM (inactive), the GI50 [7] was > 100 µM (inactive) and the GI50 [8] was > 100 µM (inactive). The GI50 [9] was > 100 µM (inactive), the GI50 [49] was > 100 µM (inactive) and the GI50 [11] was > 100 µM (inactive). For the same compound, the GI50 [12] was > 100 µM (inactive), the GI50 [50] was > 100 µM (inactive) and the GI50 [13] was > 100 µM (inactive). The GI50 [15] was > 100 µM (inactive), the GI50 [16] was > 100 µM (inactive) and the GI50 [18] was > 100 µM (inactive). The GI50 [19] was > 100 µM (inactive), the GI50 [20] was > 100 µM (inactive) and the GI50 [22] was > 100 µM (inactive). The GI50 [23] was > 100 µM (inactive), the GI50 [24] was > 100 µM (inactive) and the GI50 [25] was > 100 µM (inactive). For the same compound, the GI50 [26] was > 100 µM (inactive), the GI50 [51] was > 100 µM (inactive) and the GI50 [27] was > 100 µM (inactive). The GI50 [28] was > 100 µM (inactive), the GI50 [29] was > 100 µM (inactive) and the GI50 [30] was > 100 µM (inactive). For the same compound, the GI50 [31] was > 100 µM (inactive), the GI50 [32] was > 100 µM (inactive) and the GI50 [34] was > 100 µM (inactive). For the same compound, the GI50 [52] was > 100 µM (inactive), the GI50 [35] was > 100 µM (inactive) and the GI50 [36] was > 100 µM (inactive). For the same compound, the GI50 [37] was > 100 µM (inactive), the GI50 [38] was > 100 µM (inactive) and the GI50 [39] was > 100 µM (inactive). The GI50 [40] was > 100 µM (inactive), the GI50 [41] was > 100 µM (inactive) and the GI50 [42] was > 100 µM (inactive). For the same compound, the GI50 [53] was > 100 µM (inactive), the GI50 [54] was over 100 µM and the GI50 [43] was > 100 µM (inactive). For the same compound, the GI50 [55] was > 100 µM (inactive), the GI50 [44] was > 100 µM (inactive) and the GI50 [45] was > 100 µM (inactive). For the same compound, the GI50 [46] was > 100 µM (inactive), the GI50 [56] was > 100 µM (inactive) and the GI50 [47] was > 100 µM (inactive).
